{
  "source": "patent US20230000905A1",
  "about": "“IODINE AND POLYOL COMPOSITION, METHOD, AND USE” (priority 2020, published 2023)",
  "origin": "cited, not measured here",
  "tested_on": "rhinovirus",
  "conditions": "molecular iodine at the tested concentrations",
  "data": [
    {"smiles": "II", "note": "[molecular iodine]", "values": [
      {"measurement": "time to inactivate rhinovirus", "result": 30, "unit": "s"}
    ]}
  ]
}
